“Also recorded” adds a separate entry of the source. Where two headings read alike, the source gives them in different places.
Experiments:
[1] = Moisture sorption analysis; format: physicochemical; details: for Moisture Sorption: weight lost upon desorption: between 95% and 5% RH; for XRPD after Moisture Sorption: solid remaining after moisture sorption analysis
[2] = format: physicochemical
Description: Amorphous samples were exposed to ambient, 53%, and 97% relative humidities at ambient temperature (about 10° C. to about 30° C.). The samples were also exposed to 75% relative humidity at 40° C. The samples were stressed for up to 60 days. Samples were taken periodically throughout the study and analyzed by x-ray powder diffraction (XRPD) for presence of crystallinity.
Relative humidity stress studies were performed to assess the stability of amorphous alvimopan and solid dispersions. Studies were performed at ambient, 53%, and 97% relative humidity at ambient temperature. Ambient relative humidity and temperature was measured as approximately 24% and 22° C. Samples were also stressed at 75% relative humidity at 40° C. Samples were analyzed by XRPD for the presence of crystallinity.

[3] = Intrinsic dissolution experiments (Woods apparatus); format: physicochemical; details: approximately 37° C., 75 rpm, 900 mL medium, value (SD)
Description: Intrinsic dissolution experiments were conducted in a VanKel VK7010 dissolution apparatus equipped with a VK750A heater/circulator. An intrinsic dissolution apparatus (Woods apparatus) and hydraulic press were used to press samples of approximately 200 mg at approximately 1000 psi for 1 minute, giving a sample surface of 0.50 cm^2. Experiments were conducted in media of pH=1.2 HCl solution and pH =4.5 phosphate solution. 900 mL of medium was used for each experiment and the medium was maintained at approximately 37° C. The apparatus was rotated at 75 rpm. The Cary 50 UV/Vis spectrophotometer was utilized to sample automatically throughout the duration of the experiments.
Samples were analyzed with a Cary 50 UV-VIS double-beam spectrophotometer, and were analyzed in 1.000-cm quartz cuvettes at a wavelength of 271 nm. The detector was zeroed with a cuvette filled with dissolution medium prior to sample analysis. Wavelength calibration was performed using holmium oxide. The photometric accuracy was verified by measuring the intensity of the light at the detector when filters of known optical density were placed in the path of the beam.

[4] = Conversion of amorphous form to crystalline dihydrate form (background statement); format: physicochemical
Description: [[2(S)-[[4(R)-(3-hydroxyphenyl)-3(R),4-dimethyl-piperidinyl]methyl]-1-oxo-3-phenylpropyl]amino]acetic acid may exist in different crystalline forms, including hydrate forms, solvate forms and anhydrous form, and as an amorphous material. Above a relative humidity of about 15%, it exists in its crystalline dihydrate form. Below a relative humidity of about 15%, it exists in its anhydrous form. Amorphous [[2(S)-[[4(R)-(3-hydroxyphenyl)-3(R),4-dimethyl-piperidinyl]methyl]-1-oxo-3-phenylpropyl]amino]acetic acid is hygroscopic and converts to its crystalline dihydrate form when it is stressed, for example, at 54% relative humidity for 12 days or 75% relative humidity in the temperature range of about 40° C. to about 80° C. for three days. Under ambient conditions, amorphous [[2(S)-[[4(R)-(3-hydroxyphenyl)-3(R),4-dimethyl-piperidinyl]methyl]-1-oxo-3-phenylpropyl]amino]acetic acid completely converts to its crystalline dihydrate form after 66 days.

[5] = Bioavailability (statement); format: in vivo; details: statement in words, dihydrate
[6] = Solubility in water (statement); format: physicochemical; details: statement in words, dihydrate
[7] = listed as Amorphous Alvimopan Prepared by Rotary Evaporation
[8] = listed as rotary evaporated sample
[9] = 53% Relative Humidity and Ambient Temperature, 7 days stressed
[10] = 53% Relative Humidity and Ambient Temperature, 17 days stressed
[11] = 53% Relative Humidity and Ambient Temperature, 30 days stressed
[12] = 53% Relative Humidity and Ambient Temperature, 60 days stressed
[13] = 75% Relative Humidity and 40° C., 7 days stressed
[14] = 97% Relative Humidity and Ambient Temperature, 7 days stressed
[15] = ambient conditions (approximately 24% relative humidity and 22° C.), 7 days stressed
[16] = ambient conditions (approximately 24% relative humidity and 22° C.), 17 days stressed
[17] = ambient conditions (approximately 24% relative humidity and 22° C.), 30 days stressed
[18] = ambient conditions (approximately 24% relative humidity and 22° C.), 60 days stressed
[19] = listed as Amorphous [[2(S)-[[4(R)-(3-hydroxyphenyl)-3(R),4-dimethyl-piperidinyl]methyl]-1-, sodium salt
[20] = ambient conditions (approximately 24% relative humidity and 22° C.), 43 days stressed
[21] = listed as Amorphous [[2(S)-[[4(R)-(3-hydroxyphenyl)-3(R),4-dimethyl-piperidinyl]methyl]-1-

C[C@H]1CN(C[C@H](Cc2ccccc2)C(=O)NCC(=O)O)CC[C@@]1(C)c1cccc(O)c1 [ethanol roto evap at 30° C.; 100° C. vac oven] [[[2(S)-[[4(R)-(3-hydroxyphenyl)-3(R),4-dimethyl-piperidinyl]methyl]-1-oxo-3-phenylpropyl]amino]acetic acid]
Moisture Sorption: weight gain between 5% and 95% RH [1, 7]: 13.8% weight gain between 5% and 95% RH | Moisture Sorption: weight gain between 5% and 95% RH [1, 8]: ~13% | Moisture Sorption: weight lost upon desorption [1, 7]: 12.2% weight lost upon desorption | Moisture Sorption: lost upon equilibration at 5% RH [1, 7]: 0.6% lost upon equilibration at 5% RH | XRPD after Moisture Sorption [1, 7]: low crystalline; amorphous, Form A, or Form B | XRPD after Moisture Sorption [1, 8]: crystallized to low crystalline material | Stability conclusion of the stress studies [2]: showed crystallization under this same stress condition | XRPD Result [2, 9]: amorphous | XRPD Result [2, 10]: amorphous | XRPD Result [2, 11]: amorphous | Observation [2, 12]: white solids, | XRPD Result [2, 12]: amorphous | Outcome of stress ([2]; 75% RH and 40° C., listed as Amorphous [[2(S)-[[4(R)-(3-hydroxyphenyl)-3(R),4-dimethyl-piperidinyl]methyl]-1-): crystallized to alvimopan Form A | Observation [2, 13]: white solids; | XRPD Result [2, 13]: PC; Form A | Observation [2, 14]: white solids; some | XRPD Result [2, 14]: Form A | XRPD Result [2, 15]: amorphous | XRPD Result [2, 16]: amorphous | Observation [2, 17]: white solids, flakes; | XRPD Result [2, 17]: amorphous | XRPD Result [2, 18]: amorphous

C[C@H]1CN(C[C@H](Cc2ccccc2)C(=O)NCC(=O)[O-])CC[C@@]1(C)c1cccc(O)c1.[Na+] [2:1 sodium carbonate attempt; lyophilized; 100° C. vac oven] [[[2(S)-[[4(R)-(3-hydroxyphenyl)-3(R),4-dimethyl-piperidinyl]methyl]-1-oxo-3-phenylpropyl]amino]acetic acid sodium salt]
Moisture Sorption: lost upon equilibration at 5% RH [1, 19]: 0.1% lost upon equilibration at 5% RH | XRPD after Moisture Sorption [1, 19]: deliquescence of the material; also recorded: sample deliquesced | XRPD Result ([2]; 53% Relative Humidity and Ambient Temperature, 13 days stressed): amorphous | XRPD Result ([2]; 53% Relative Humidity and Ambient Temperature, 43 days stressed): amorphous | Observation ([2]; 75% Relative Humidity and 40° C., 3 days stressed, sodium salt): deliquescence; | Outcome of stress ([2]; 97% relative humidity and ambient temperature, listed as 2:1 amorphous [[2(S)-[[4(R)-(3-hydroxyphenyl)-3(R),4-dimethyl-piperidinyl]methyl, sodium salt): deliquesced within three days of exposure | Observation ([2]; ambient conditions (approximately 24% relative humidity and 22° C.), 7 days stressed, sodium salt): off-white, yellow | XRPD Result ([2]; ambient conditions (approximately 24% relative humidity and 22° C.), 13 days stressed): amorphous + peak | XRPD Result ([2]; ambient conditions (approximately 24% relative humidity and 22° C.), 30 days stressed, sodium salt): amorphous + peak; | Observation [2, 20]: white and yellow | XRPD Result [2, 20]: amorphous + peak

C[C@H]1CN(C[C@H](Cc2ccccc2)C(=O)NCC(=O)O)CC[C@@]1(C)c1cccc(O)c1 [amorphous preparation, [[2(S)-[[4(R)-(3-hydroxyphenyl)-3(R),4-dimethyl-piperidinyl]methyl]-1-oxo-3-phenylpropyl]amino]acetic acid]
Stability conclusion of the stress studies [2]: stable under stress conditions except at 97% relative humidity | Intrinsic Dissolution Rate, mg/min/cm^2 (SD), pH 1.2 HCl [3]: 0.217 (0.017) mg/min/cm^2 | time stressed after which amorphous form converts to its crystalline dihydrate form ([4]; 54% relative humidity): 12 days | time stressed after which amorphous form converts to its crystalline dihydrate form ([4]; 75% relative humidity, about 40° C. to about 80° C.): three days | time after which amorphous form completely converts to its crystalline dihydrate form ([4]; ambient conditions): 66 days

C[C@H]1CN(C[C@H](Cc2ccccc2)C(=O)NCC(=O)[O-])CC[C@@]1(C)c1cccc(O)c1.[Na+] [[[2(S)-[[4(R)-(3-hydroxyphenyl)-3(R),4-dimethyl-piperidinyl]methyl]-1-oxo-3-phenylpropyl]amino]acetic acid sodium salt]
Moisture Sorption: lost upon equilibration at 5% RH [1]: 2.8% lost upon equilibration at 5% RH | XRPD after Moisture Sorption [1, 19]: peak + amorphous | XRPD Result [2, 9]: amorphous + peak | XRPD Result [2, 10]: amorphous + peak | XRPD Result [2, 11]: amorphous + peak | XRPD Result [2, 12]: amorphous + peak | Outcome of stress ([2]; 75% RH and 40° C.): deliquesced after three days of exposure | Observation [2, 14]: white solids; slight | XRPD Result [2, 14]: Form A | Outcome of stress ([2]; 97% relative humidity and ambient temperature): likely crystallized to Form A | XRPD Result [2, 15]: amorphous + peak | Observation [2, 16]: off-white, yellow | XRPD Result [2, 16]: amorphous + peak | Observation [2, 17]: off-white, yellow | XRPD Result [2, 17]: amorphous + peak

C[C@H]1CN(C[C@H](Cc2ccccc2)C(=O)NCC(=O)O)CC[C@@]1(C)c1cccc(O)c1 [lyophilized; 100° C. vac oven, [[2(S)-[[4(R)-(3-hydroxyphenyl)-3(R),4-dimethyl-piperidinyl]methyl]-1-oxo-3-phenylpropyl]amino]acetic acid]
Moisture Sorption: weight gain between 5% and 95% RH [1, 21]: 13.0% weight gain between 5% and 95% RH | Moisture Sorption: weight gain between 5% and 95% RH ([1]; listed as lyophilized sample): ~13% | Moisture Sorption: weight lost upon desorption [1, 21]: 10.8% weight lost upon desorption | Moisture Sorption: lost upon equilibration at 5% RH [1, 21]: 0.2% lost upon equilibration at 5% RH | XRPD after Moisture Sorption [1, 21]: amorphous | XRPD after Moisture Sorption ([1]; listed as lyophilized sample): remained amorphous | Stability conclusion of the stress studies [2]: stable at 75% relative humidity and 40 °C | XRPD Result [2, 9]: amorphous | XRPD Result [2, 10]: amorphous | XRPD Result [2, 11]: amorphous | XRPD Result [2, 12]: amorphous | Outcome of stress ([2]; 75% RH and 40° C., listed as amorphous alvimopan sample prepared by lyophilization): Crystallization was not observed | XRPD Result [2, 13]: amorphous | XRPD Result ([2]; 75% Relative Humidity and 40° C., 17 days stressed): amorphous | XRPD Result ([2]; 75% Relative Humidity and 40° C., 30 days stressed): amorphous | XRPD Result ([2]; 75% Relative Humidity and 40° C., 60 days stressed): amorphous | Observation [2, 14]: off-white solids; some | XRPD Result [2, 14]: Form A | XRPD Result [2, 15]: amorphous | XRPD Result [2, 16]: amorphous | XRPD Result [2, 17]: amorphous | XRPD Result [2, 18]: amorphous

C[C@H]1CN(C[C@H](Cc2ccccc2)C(=O)NCC(=O)O)CC[C@@]1(C)c1cccc(O)c1 [crystalline alvimopan, [[2(S)-[[4(R)-(3-hydroxyphenyl)-3(R),4-dimethyl-1-piperidinyl]methyl]-1-oxo-3-phenylpropyl]amino]acetic acid dihydrate]
Intrinsic Dissolution Rate, mg/min/cm^2 (SD), pH 1.2 HCl [3]: 0.148 (0.025) mg/min/cm^2 | bioavailability ([5]; listed as Alvimopan): poor oral bioavailability | bioavailability ([5]; listed as alvimopan): lower bioavailability than the amorphous form | solubility in water ([6]; listed as Alvimopan): extremely low solubility in water | solubility in water ([6]; listed as alvimopan): lower solubility in water than amorphous | solubility in water ([6]; listed as compound of formula (II)): low solubility in water except at low or high pH conditions

— patent US7914776B2, “Solid dispersions of opioid antagonists” (Adolor Corporation, priority 2005, dated 2011)
